Earlier results on 1 molecule are cited in patent publication US20170001953A1, “FUMARATE COMPOUNDS, PHARMACEUTICAL COMPOSITIONS THEREOF, AND METHODS OF USE” (priority 2015, published 2017).

SMILES strings stand for the structures.

In the case of `COC(=O)/C=C/C(=O)OC` [DMF, dimethylfumarate], the aqueous solubility entry is reported as “poor”.
